# Measured values taken from ChEMBL document CHEMBL4400547 (J Med Chem, 2019).
# pEC50, pIC50: −log10 of the molar value. The source made the active and inactive calls. No cut-off for these calls is given here.
# Legend:
# [1] = molecular target: T1, Serine/threonine-protein kinase/endoribonuclease IRE1 (Homo sapiens, UniProt O75460); assay: Inhibition of dephosphorylated IRE1alpha (G547 to L977 residues) (unknown origin) autophosphorylation at S724 after 25 mins in presence of ATP by dissociation-enhanced lanthanide fluorescence immunoassay
# Target sequence in this assay (O75460 whole entry, the tested form may be a part): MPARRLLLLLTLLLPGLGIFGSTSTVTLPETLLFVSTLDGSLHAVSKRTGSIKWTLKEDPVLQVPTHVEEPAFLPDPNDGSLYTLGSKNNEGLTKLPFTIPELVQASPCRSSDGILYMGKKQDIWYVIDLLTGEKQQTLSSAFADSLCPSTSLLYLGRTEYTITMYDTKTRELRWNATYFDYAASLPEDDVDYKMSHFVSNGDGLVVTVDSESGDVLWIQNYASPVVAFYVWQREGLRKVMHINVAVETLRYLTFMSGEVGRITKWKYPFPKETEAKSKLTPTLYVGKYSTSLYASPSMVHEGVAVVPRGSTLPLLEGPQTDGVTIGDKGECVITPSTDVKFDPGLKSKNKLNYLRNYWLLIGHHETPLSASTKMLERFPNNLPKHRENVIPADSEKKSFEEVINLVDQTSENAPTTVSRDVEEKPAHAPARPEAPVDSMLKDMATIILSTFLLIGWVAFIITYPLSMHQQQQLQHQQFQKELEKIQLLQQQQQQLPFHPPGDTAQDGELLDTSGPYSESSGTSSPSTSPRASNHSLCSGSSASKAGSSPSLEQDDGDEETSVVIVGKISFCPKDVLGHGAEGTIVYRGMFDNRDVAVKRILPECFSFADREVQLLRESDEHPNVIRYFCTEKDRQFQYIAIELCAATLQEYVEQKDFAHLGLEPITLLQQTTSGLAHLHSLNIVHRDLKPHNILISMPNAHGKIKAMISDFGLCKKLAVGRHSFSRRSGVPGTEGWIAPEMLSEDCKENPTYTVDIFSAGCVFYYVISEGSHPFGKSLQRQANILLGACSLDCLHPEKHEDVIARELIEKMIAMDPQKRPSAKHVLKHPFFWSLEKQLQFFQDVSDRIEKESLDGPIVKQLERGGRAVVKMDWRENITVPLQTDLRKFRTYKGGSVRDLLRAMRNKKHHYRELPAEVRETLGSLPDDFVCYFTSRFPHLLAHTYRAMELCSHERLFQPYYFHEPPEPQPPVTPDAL
# [2] = molecular target: T1, Serine/threonine-protein kinase/endoribonuclease IRE1; assay: Displacement for LanthaScreen tracer from dephosphorylated IRE1alpha (G547 to L977 residues) (unknown origin) ATP binding site […] after 60 mins by FRET assay
# Target sequence in this assay (O75460 whole entry, the tested form may be a part): as above
# [3] = Distribution coefficient, log D of the compound at pH 7.4; format: physicochemical; conditions: octanol/water
# physchem = conditions: buffer
# Description: Aqueous kinetic solubility of the compound
# [4] = molecular target: Myosin light chain kinase, smooth muscle (Homo sapiens) (UniProt Q15746); assay: Inhibition of recombinant human GST-tagged MLCK expressed in baculovirus expression system at 1 uM by kinomescan assay relative to control
# [5] = molecular target: Homeodomain-interacting protein kinase 2 (Homo sapiens) (UniProt Q9H2X6); assay: Inhibition of recombinant human N-terminal GST-tagged HIPK2 expressed in baculovirus expression system at 1 uM by kinomescan assay relative to control
# [6] = molecular target: T1, Serine/threonine-protein kinase/endoribonuclease IRE1; assay: Inhibition of dephosphorylated IRE1alpha (G547 to L977 residues) (unknown origin) -dependent cleavage of FAM-labeled stem-loop RNA containing the XBP1 cleavage site preincubated for 30 mins followed by RNA XBP1 substrate addition and measured after 15 mins by FRET assay
# Target sequence in this assay (O75460 whole entry, the tested form may be a part): as above
# [7] = test system: Receptor-type tyrosine-protein kinase FLT3 (Homo sapiens), P36888 [N841I]; assay: Inhibition of recombinant human His-tagged FLT3 […] mutant expressed in baculovirus expression system at 1 uM by kinomescan assay relative to control
# [8] = test system: Tyrosine-protein kinase ABL1 (Homo sapiens), P00519 [F317I]; assay: Inhibition of phosphorylated recombinant human His-tagged ABL1 F317I mutant expressed in baculovirus expression system at 1 uM by kinomescan assay relative to control
# [9] = molecular target: Platelet-derived growth factor receptor alpha (Homo sapiens) (UniProt P16234); assay: Inhibition of recombinant human GST-tagged PDGFRA expressed in baculovirus expression system at 1 uM by kinomescan assay relative to control
# [10] = test system: Mast/stem cell growth factor receptor Kit (Homo sapiens), P10721 [V559D,V654A]; assay: Inhibition of recombinant human His-tagged KIT V559D/V654A double mutant expressed in baculovirus expression system at 1 uM by kinomescan assay relative to control
# Homo sapiens = species on record: Homo sapiens; assay: Inhibition of recombinant human His-tagged FLT3 ITD/D835V double mutant expressed in baculovirus expression system at 1 uM by kinomescan assay relative to control
# HEK293 = assay: cells; conditions: Homo sapiens
# Description: Cytotoxicity against HEK293 cells co-expressing XBP1u-mRNA by luciferase reporter gene assay
# [11] = test system: Receptor-type tyrosine-protein kinase FLT3 (Homo sapiens), P36888 [R834Q]; assay: Inhibition of recombinant human His-tagged FLT3 R834Q mutant expressed in baculovirus expression system at 1 uM by kinomescan assay relative to control
# [12] = molecular target: T1, Serine/threonine-protein kinase/endoribonuclease IRE1; assay: Inhibition of thapsigargin-induced IRE1alpha (unknown origin) expressed in HEK293 cells assessed as reduction in IRE1alpha-dependent splicing of XBP1u-luciferase mRNA by luciferase reporter gene assay; format: cell-based
# Target sequence in this assay (O75460 whole entry, the tested form may be a part): as above
# [13] = molecular target: Homeodomain-interacting protein kinase 3 (Homo sapiens) (UniProt Q9H422); assay: Inhibition of recombinant human His-tagged HIPK3 expressed in baculovirus expression system at 1 uM by kinomescan assay relative to control
# [14] = test system: Mast/stem cell growth factor receptor Kit (Homo sapiens), P10721 [V559D]; assay: Inhibition of recombinant human His-tagged KIT V559D mutant expressed in baculovirus expression system at 1 uM by kinomescan assay relative to control
# [15] = molecular target: Mast/stem cell growth factor receptor Kit (Homo sapiens) (UniProt P10721); assay: Inhibition of recombinant human His-tagged KIT expressed in baculovirus expression system at 1 uM by kinomescan assay relative to control
# [16] = test system: Receptor-type tyrosine-protein kinase FLT3 (Homo sapiens), P36888 [D835H]; assay: Inhibition of recombinant human His-tagged FLT3 D835H mutant expressed in baculovirus expression system at 1 uM by kinomescan assay relative to control
# [17] = molecular target: Dual specificity protein kinase CLK1 (Homo sapiens) (UniProt P49759); assay: Inhibition of recombinant human GST-tagged CLK1 expressed in Escherichia coli at 1 uM by kinomescan assay relative to control
# [18] = molecular target: Dual specificity tyrosine-phosphorylation-regulated kinase 2 (Homo sapiens) (UniProt Q92630); assay: Inhibition of recombinant human GST-tagged DYRK2 at 1 uM by kinomescan assay relative to control
# [19] = molecular target: Homeodomain-interacting protein kinase 4 (Homo sapiens) (UniProt Q8NE63); assay: Inhibition of recombinant human His-tagged HIPK4 expressed in baculovirus expression system at 1 uM by kinomescan assay relative to control
# [20] = molecular target: Cyclin-G-associated kinase (Homo sapiens) (UniProt O14976); assay: Inhibition of recombinant human GST-tagged GAK (1 to 396 residues) expressed in insect cell expression system at 1 uM by kinomescan assay relative to control
# [21] = molecular target: Receptor-type tyrosine-protein kinase FLT3 (Homo sapiens) (UniProt P36888); assay: Inhibition of auto-inhibited recombinant human His-tagged FLT3 expressed in baculovirus expression system at 1 uM by kinomescan assay relative to control
# [22] = molecular target: Dual specificity protein kinase CLK2 (Homo sapiens) (UniProt P49760); assay: Inhibition of recombinant human GST-tagged CLK2 expressed in baculovirus expression system at 1 uM by kinomescan assay relative to control
# [23] = test system: Mast/stem cell growth factor receptor Kit (Homo sapiens), P10721 [V559D,T670I]; assay: Inhibition of recombinant human His-tagged KIT V559D/T670I double mutant expressed in baculovirus expression system at 1 uM by kinomescan assay relative to control
# [24] = molecular target: Homeodomain-interacting protein kinase 1 (Homo sapiens) (UniProt Q86Z02); assay: Inhibition of recombinant human GST-tagged HIPK1 expressed in baculovirus expression system at 1 uM by kinomescan assay relative to control
# [25] = molecular target: Receptor-type tyrosine-protein kinase FLT3 (Homo sapiens) (UniProt P36888); assay: Inhibition of recombinant human His-tagged FLT3 expressed in baculovirus expression system at 1 uM by kinomescan assay relative to control
# [26] = test system: Tyrosine-protein kinase ABL1 (Homo sapiens), P00519 [F317L]; assay: Inhibition of phosphorylated recombinant human His-tagged ABL1 F317L mutant expressed in baculovirus expression system at 1 uM by kinomescan assay relative to control
# [27] = molecular target: Dual specificity tyrosine-phosphorylation-regulated kinase 1A (Homo sapiens) (UniProt Q13627); assay: Inhibition of recombinant full length human GST-tagged DYRK1A expressed in baculovirus expression system at 1 uM by kinomescan assay relative to control
# [28] = molecular target: T1, Serine/threonine-protein kinase/endoribonuclease IRE1; assay: Inhibition of tunicamycin-induced IRE1alpha (unknown origin) expressed in HEK293 cells assessed as reduction in IRE1alpha-dependent splicing of XBP1u-luciferase mRNA by luciferase reporter gene assay; format: cell-based
# Target sequence in this assay (O75460 whole entry, the tested form may be a part): as above
# [29] = molecular target: Dual specificity tyrosine-phosphorylation-regulated kinase 1B (Homo sapiens) (UniProt Q9Y463); assay: Inhibition of recombinant full length human GST-tagged DYRK1B expressed in baculovirus expression system at 1 uM by kinomescan assay relative to control
# [30] = test system: Receptor-type tyrosine-protein kinase FLT3 (Homo sapiens), P36888 [UNDEFINED MUTATION]; assay: Inhibition of recombinant human His-tagged FLT3 ITD mutant expressed in baculovirus expression system at 1 uM by kinomescan assay relative to control
# [31] = molecular target: Dual specificity protein kinase CLK4 (Homo sapiens) (UniProt Q9HAZ1); assay: Inhibition of recombinant full length human GST-tagged CLK4 expressed in baculovirus expression system at 1 uM by kinomescan assay relative to control
# [32] = molecular target: T1, Serine/threonine-protein kinase/endoribonuclease IRE1; assay: Inhibition of tunicamycin-induced IRE1alpha-dependent splicing of XBP1s-mRNA transcription in human H929 cells assessed as reduction in […] mRNA expression in at 0.5 to 10 uM by RT-qPCR analysis; format: cell-based
# [33] = test system: Receptor-type tyrosine-protein kinase FLT3 (Homo sapiens), P36888 [D835V]; assay: Inhibition of recombinant human His-tagged FLT3 D835V mutant expressed in baculovirus expression system at 1 uM by kinomescan assay relative to control
# [34] = test system: Mast/stem cell growth factor receptor Kit (Homo sapiens), P10721 [L576P]; assay: Inhibition of recombinant human His-tagged KIT L576P mutant expressed in baculovirus expression system at 1 uM by kinomescan assay relative to control
# [35] = molecular target: T1, Serine/threonine-protein kinase/endoribonuclease IRE1; assay: Inhibition of tunicamycin-induced GFP-fused IRE1alpha (unknown origin) oligomerization expressed in HEK293 cells assessed as reduction in fluorescent foci formation after 5 hrs by fluorescence based assay; format: cell-based
# Target sequence in this assay (O75460 whole entry, the tested form may be a part): as above
# [36] = molecular target: Cyclin-dependent kinase 17 (Homo sapiens) (UniProt Q00537); assay: Inhibition of recombinant human GST-tagged PCTK2 expressed in baculovirus expression system at 1 uM by kinomescan assay relative to control
# [37] = molecular target: Platelet-derived growth factor receptor beta (Homo sapiens) (UniProt P09619); assay: Inhibition of recombinant human His-tagged PDGFRB expressed in baculovirus expression system at 1 uM by kinomescan assay relative to control
# [38] = test system: Receptor-type tyrosine-protein kinase FLT3 (Homo sapiens), P36888 [D835Y]; assay: Inhibition of recombinant human His-tagged FLT3 D835Y mutant expressed in baculovirus expression system at 1 uM by kinomescan assay relative to control
# [39] = test system: Receptor-type tyrosine-protein kinase FLT3 (Homo sapiens), P36888 [K663Q]; assay: Inhibition of recombinant human His-tagged FLT3 K663Q mutant expressed in baculovirus expression system at 1 uM by kinomescan assay relative to control
# Homeodomain-interacting protein kinase 4 (Homo sapiens), sequence (Q8NE63 whole entry, the tested form may be a part): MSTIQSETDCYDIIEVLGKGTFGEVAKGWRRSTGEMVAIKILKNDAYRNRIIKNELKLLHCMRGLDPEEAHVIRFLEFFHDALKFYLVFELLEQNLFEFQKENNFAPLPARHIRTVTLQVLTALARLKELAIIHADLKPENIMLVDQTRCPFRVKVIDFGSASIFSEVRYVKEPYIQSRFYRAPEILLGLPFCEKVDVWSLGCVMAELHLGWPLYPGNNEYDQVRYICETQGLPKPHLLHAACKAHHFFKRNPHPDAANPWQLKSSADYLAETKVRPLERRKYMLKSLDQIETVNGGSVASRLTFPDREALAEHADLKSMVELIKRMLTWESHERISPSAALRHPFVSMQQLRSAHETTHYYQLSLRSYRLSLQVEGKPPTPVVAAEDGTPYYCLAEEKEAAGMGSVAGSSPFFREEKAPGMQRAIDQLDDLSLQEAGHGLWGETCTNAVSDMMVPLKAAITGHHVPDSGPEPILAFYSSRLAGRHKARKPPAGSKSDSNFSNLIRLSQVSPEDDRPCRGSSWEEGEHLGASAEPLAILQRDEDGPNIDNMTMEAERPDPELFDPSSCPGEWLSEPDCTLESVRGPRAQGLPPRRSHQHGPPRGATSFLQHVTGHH
# Dual specificity protein kinase CLK4 (Homo sapiens), sequence (Q9HAZ1 whole entry, looked up): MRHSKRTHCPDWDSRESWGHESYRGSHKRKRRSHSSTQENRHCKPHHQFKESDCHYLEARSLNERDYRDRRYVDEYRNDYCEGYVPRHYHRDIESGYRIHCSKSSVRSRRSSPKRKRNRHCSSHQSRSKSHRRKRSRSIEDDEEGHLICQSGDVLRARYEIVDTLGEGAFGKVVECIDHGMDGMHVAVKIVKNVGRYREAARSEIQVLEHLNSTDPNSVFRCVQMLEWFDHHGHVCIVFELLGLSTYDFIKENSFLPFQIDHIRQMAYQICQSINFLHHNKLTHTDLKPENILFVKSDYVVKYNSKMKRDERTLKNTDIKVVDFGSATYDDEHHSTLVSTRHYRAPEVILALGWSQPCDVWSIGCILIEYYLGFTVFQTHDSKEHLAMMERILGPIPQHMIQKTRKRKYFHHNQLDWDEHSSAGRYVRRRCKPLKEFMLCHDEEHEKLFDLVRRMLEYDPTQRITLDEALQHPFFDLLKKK
# Mast/stem cell growth factor receptor Kit (Homo sapiens), P10721 [L576P], sequence (P10721 whole entry L576P, the tested form may be a part): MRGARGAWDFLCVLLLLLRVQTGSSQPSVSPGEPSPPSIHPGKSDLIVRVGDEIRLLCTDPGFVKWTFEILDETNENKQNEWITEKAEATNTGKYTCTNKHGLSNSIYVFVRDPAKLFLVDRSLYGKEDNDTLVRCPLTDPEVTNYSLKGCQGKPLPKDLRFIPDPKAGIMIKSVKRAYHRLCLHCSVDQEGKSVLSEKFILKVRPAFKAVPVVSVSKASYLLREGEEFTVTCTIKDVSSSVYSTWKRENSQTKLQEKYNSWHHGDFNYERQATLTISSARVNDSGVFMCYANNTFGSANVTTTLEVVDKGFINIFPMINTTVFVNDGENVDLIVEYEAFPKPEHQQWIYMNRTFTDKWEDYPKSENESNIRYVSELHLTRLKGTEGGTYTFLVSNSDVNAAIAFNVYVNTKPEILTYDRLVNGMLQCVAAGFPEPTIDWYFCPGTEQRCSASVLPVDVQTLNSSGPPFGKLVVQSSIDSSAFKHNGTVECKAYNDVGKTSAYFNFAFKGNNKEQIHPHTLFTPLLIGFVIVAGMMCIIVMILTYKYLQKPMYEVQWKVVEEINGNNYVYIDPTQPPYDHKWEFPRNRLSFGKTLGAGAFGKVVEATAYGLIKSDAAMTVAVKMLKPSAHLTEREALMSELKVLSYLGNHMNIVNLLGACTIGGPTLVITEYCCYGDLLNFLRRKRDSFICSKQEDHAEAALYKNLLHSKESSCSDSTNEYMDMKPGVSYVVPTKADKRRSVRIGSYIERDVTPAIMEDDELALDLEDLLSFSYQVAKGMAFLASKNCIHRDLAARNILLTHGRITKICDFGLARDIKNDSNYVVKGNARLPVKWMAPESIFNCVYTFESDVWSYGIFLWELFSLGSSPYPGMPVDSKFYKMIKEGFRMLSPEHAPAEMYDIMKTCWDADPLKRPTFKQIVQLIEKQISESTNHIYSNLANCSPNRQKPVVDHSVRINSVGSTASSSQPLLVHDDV
# Mast/stem cell growth factor receptor Kit (Homo sapiens), P10721 [V559D], sequence (P10721 whole entry V559D): as the sequence (P10721 whole entry L576P, the tested form may be a part) above, with V559D, P576L counted along it
# Dual specificity protein kinase CLK1 (Homo sapiens), sequence (P49759 whole entry, looked up): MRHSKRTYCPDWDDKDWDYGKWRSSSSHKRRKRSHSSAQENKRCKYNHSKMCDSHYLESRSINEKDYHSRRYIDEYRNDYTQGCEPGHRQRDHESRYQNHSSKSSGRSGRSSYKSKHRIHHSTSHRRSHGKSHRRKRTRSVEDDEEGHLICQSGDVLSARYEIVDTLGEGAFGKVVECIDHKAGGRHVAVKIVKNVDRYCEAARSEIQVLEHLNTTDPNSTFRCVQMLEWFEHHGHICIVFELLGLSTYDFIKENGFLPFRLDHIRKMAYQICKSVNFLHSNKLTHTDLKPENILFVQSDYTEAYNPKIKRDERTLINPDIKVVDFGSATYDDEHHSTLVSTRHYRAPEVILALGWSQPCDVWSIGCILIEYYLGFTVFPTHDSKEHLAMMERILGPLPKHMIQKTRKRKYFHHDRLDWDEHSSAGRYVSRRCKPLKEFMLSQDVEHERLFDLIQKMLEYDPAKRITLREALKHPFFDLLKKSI
smiles,measurement,setting,value
CN(c1ccccc1)c1nc2cc(-c3cnc4c(NCC5CC5)cc(Cl)nn34)ccc2[nH]1,pIC50,[1],< 5.00
same,pIC50,[2],< 5.00
CN1CCC(Nc2cc(Cl)nn3c(-c4ccc5[nH]c(Nc6ccccc6)nc5c4)cnc23)CC1,logD,[3],2.7
same,solubility kinetic,physchem,41 µM
O=C(CN1CCOCC1)N[C@H]1CC[C@H](Nc2cc(Cl)nn3c(-c4ccc5[nH]ncc5c4)cnc23)CC1,inhibition,[4],> 90%
same,inhibition,[5],> 90%
same,pIC50,[6],7.57
same,inhibition,[7],> 90%
same,inhibition,[8],> 90%
same,inhibition,[9],> 90%
same,inhibition,[10],> 90%
same,inhibition,Homo sapiens,> 90%
same,pEC50,HEK293,< 4.31
same,inhibition,[11],> 90%
same,pIC50,[12],5.79 to 6.17
same,inhibition,[13],> 90%
same,inhibition,[14],> 90%
same,inhibition,[15],> 90%
same,inhibition,[16],> 90%
same,inhibition,[17],> 90%
same,inhibition,[18],> 90%
same,inhibition,[19],> 90%
same,inhibition,[20],> 90%
same,inhibition,[21],> 90%
same,inhibition,[22],> 90%
same,pIC50,[1],6.62
same,inhibition,[23],> 90%
same,inhibition,[24],> 90%
same,inhibition,[25],> 90%
same,pIC50,[2],7.06
same,inhibition,[26],> 90%
same,inhibition,[27],> 90%
same,pIC50,[28],5.95
same,inhibition,[29],> 90%
same,inhibition,[30],> 90%
same,inhibition,[31],> 90%
same,inhibition,[32],Active
same,inhibition,[33],> 90%
same,inhibition,[34],> 90%
same,pIC50,[35],5.73
Clc1cc(NCC2CC2)c2ncc(-c3ccc4cn[nH]c4c3)n2n1,pIC50,[1],< 5.00
same,pIC50,[2],< 5.00
Clc1cc(NCC2CC2)c2ncc(-c3ccc4[nH]c(Nc5ccccc5)nc4c3)n2n1,logD,[3],4.1
same,solubility kinetic,physchem,2.9 µM
Cn1c(Nc2ccccc2)nc2cc(-c3cnc4c(NCC5CC5)cc(Cl)nn34)ccc21,pIC50,[1],< 5.00
same,pIC50,[2],< 5.00
CN1CCC(CNc2cc(Cl)nn3c(-c4cc5nc(Nc6ccccc6)[nH]c5cc4F)cnc23)CC1,pIC50,[6],7.10
same,pEC50,HEK293,5.05
same,pIC50,[12],5.79 to 6.17
same,pIC50,[1],6.80
same,inhibition,[36],> 90%
same,pIC50,[2],6.57
same,pIC50,[28],6.15
same,pIC50,[35],6.13
Clc1cc(NCC2CC2)c2ncc(-c3ccc4[nH]ncc4c3)n2n1,logD,[3],3.4
same,inhibition,[37],> 90%
same,pIC50,[6],5.05
same,inhibition,[7],> 90%
same,pEC50,HEK293,< 4.31
same,solubility kinetic,physchem,0.8 µM
same,inhibition,[14],> 90%
same,inhibition,[15],> 90%
same,inhibition,[38],> 90%
same,inhibition,[17],> 90%
same,inhibition,[39],> 90%
same,inhibition,[19],> 90%
same,inhibition,[22],> 90%
same,pIC50,[1],6.52
same,inhibition,[36],> 90%
same,inhibition,[25],> 90%
same,pIC50,[2],5.80
same,inhibition,[27],> 90%
same,pIC50,[28],5.38
same,inhibition,[29],> 90%
same,inhibition,[30],> 90%
same,inhibition,[31],> 90%
same,inhibition,[34],> 90%
Clc1cc(NC2CCOCC2)c2ncc(-c3ccc4[nH]c(Nc5ccccc5)nc4c3)n2n1,solubility kinetic,physchem,2.4 µM
Clc1cc(NC2CCOCC2)c2ncc(-c3ccc4[nH]ncc4c3)n2n1,solubility kinetic,physchem,2.2 µM
CN(c1cc(Cl)nn2c(-c3ccc4[nH]ncc4c3)cnc12)[C@H]1CC[C@H](N)CC1,pIC50,[1],< 5.00
same,pIC50,[2],< 5.00
CN1CCC(Nc2cc(Cl)nn3c(-c4ccc5[nH]ncc5c4)cnc23)CC1,logD,[3],1.8
same,solubility kinetic,physchem,58 µM
Cn1ncc2cc(-c3cnc4c(NCC5CC5)cc(Cl)nn34)ccc21,pIC50,[1],< 5.00
same,pIC50,[2],< 5.00
